# According to article PMC11194663, “Synthesis and biological research of new imidazolone-sulphonamide-pyrimidine hybrids as potential EGFR-TK inhibitors and apoptosis-inducing agents” (RSC Advances, 2024):
# Legend:
# [1] = test system: breast MCF-7 cancerous cell line; assay: MTT cytotoxicity assay; details: Homo sapiens, MCF7, 24 h, read-out: IC50 (μM) MCF-7
# Experimental: The MTT colorimetric method, a frequently utilized assay for detecting the in vitro cytotoxic activities of drugs, was chosen to evaluate the cytotoxic action of the imidazolone-sulphonamide-pyrimidine hybrids 5a–l and 6a,b in hands against breast MCF-7 adenocarcinoma cell line, and they were compared to Dox as the positive control.
# under 5% CO2. After incubation, the cells were treated with different concentrations of the test imidazolone hybrids 5a-l and 6a,b and incubated for 24 h, then 20 l of MTT
# EGFR-TK = target: T1, EGFR-TK (Homo sapiens, UniProt P00533); assay: EGFR kinase inhibitory assay (BPS Bioscience EGFR Kinase Assay Kit); format: biochemical; details: mean of three replicates; read-out: IC50 on EGFR enzyme
# T1 construct: purchased BPS Bioscience 40321
# Experimental: S4.2.1. Cytotoxic activity evaluation […]
# adenocarcinoma (MCF-7) cell line. Cell viability assay was assessed using MTT assay […]
# under 5% CO2. After incubation, the cells were treated with different concentrations of the test imidazolone hybrids 5a-l and 6a,b and incubated for 24 h, then 20 µl of MTT […]
# (DMSO) in volume of 100 µl was added to each well to dissolve the purple formazan that had formed. The color intensity of the formazan product, which represents the […]
# USA) at 570 nm absorbance. The experimental conditions were carried out with at least three replicates, and the experiments were repeated at least three times.
# S4.2.2. EGFR kinase Assay […]
# activity according to manufacturer’s instructions using # BPS Bioscience EGFR
# MCF-7 cells [2] = assay: Cell cycle analysis by flow cytometry (PI); format: cell-based; details: 1.05 μM (IC50), 48 h
# Experimental: The impact of the best potent hybrid molecule on the cellular cycle distribution was further evaluated on the MCF-7 cell line.
# S4.2.3. Cell cycle analysis of compound 6b
# Cell cycle analysis in MCF-7 cells was investigated using fluorescent Annexin V-FITC/ PI detection kit (BioVision EZCellTM Cell Cycle Analysis Kit Catalog #K920) by flow cytometry assay. MCF-7 cells at a density of 2 × 10^5 per well were harvested and washed twice in PBS. After that, the cells were incubated at 37 °C and 5% CO2. The medium was incubated with the tested compound 6b at the IC50 (µM) for 48 h, washed twice in PBS, fixed with 70% ethanol, rinsed again with PBS. Afterward, medium was stained with DNA fluorochrome PI for 15 min at 37 °C. The samples were immediately analyzed using Facs Calibur flow cytometer (Becton and Dickinson, Heidelberg, […]
# S4.2.4. Apoptosis assay for compound 6b
# (1 picture or pasted object on this page, not shown here)
# MCF-7 cells [3] = assay: Annexin V-FITC/PI apoptosis assay by flow cytometry; format: cell-based; details: IC50 concentration, 48 h
# Source text: Apoptosis, a form of programmed cellular death, is a widespread phenomenon, occurring in processes such as morphogenesis, growth and development as well as normal turnover in adult tissue.[35] Most cells are programmed to die if survival signals are not received regularly from their environment.[36] It can be initiated by endogenous tissue-specific agents such as cytokines or exogenous cell-damaging agents such as chemicals.[37] It is evidenced from the literature that exposure to EGFR-TK inhibitors leads to cellular apoptosis.[38] Thus, the effect of examined 4-(furan-2-ylmethylene)imidazolone-sulphonamide-pyrimidine hybrid 6b on the apoptosis of the MCF-7 cells was assessed utilizing Annexin V-FITC/PI double labeling followed by flow cytometry (Fig. 4). […] 4-(furan-2-ylmethylene)imidazolone-sulphonamide-pyrimidine hybrid 6b induced 46.1% apoptosis in the MCF-7 cancer cells. Thus, it is evident that this compound had substantial apoptosis-inducing action against the MCF-7 breast cancerous cell line.
# Apoptosis in MCF-7 cells was investigated using fluorescent Annexin V-FITC/ PI detection kit (BioVision Annexin V-FITC Apoptosis Detection Kit, Catalog #: K101) by flow cytometry assay. MCF-7 cells at a density of 2 × 10^5 per well were treated with compound 6b at the IC50 (µM) for 48 h, then the cells were harvested and stained with Annexin V-FITC/ PI dye for 15 min in the dark at 37 °C. The samples were immediately analyzed using FACS Calibur flow cytometer (Becton and Dickinson, […]
# Bcl-2 = assay: qRT-PCR expression of pro-survival Bcl-2 in MCF-7 cells; format: cell-based; details: IC50 concentration, 48 h, MCF-7, decline
# Source text: (§1) The Bcl-2 family members are essential in determining whether a cell will survive or perish since they reside upstream of the irreversible cellular damage.[40] Two groups of the Bcl-2 family proteins are distinguished by pro-survival (e.g. Bcl-2) or pro-apoptotic (Bax) activity.[41] The pro-apoptotic factors promote cellular death. When Bcl-2-associated x-protein (Bax) homodimerizes it enhances apoptosis. The anti-apoptotic effect of Bcl-2 may be due to its ability to inhibit Bax homodimerization.[42,43] […] It is noteworthy, that the level of pro-survival Bcl-2 protein declined by 0.28-fold compared to the control untreated cells. […] These findings support that 4-(furan-2-ylmethylene)imidazolone-sulphonamide-pyrimidine hybrid 6b induces apoptosis by regulating the expression of Bcl-2 family proteins.
# (§2) Fig. 5 Roles of Bcl-2 family protein in apoptosis induced by 4-(furan-2-ylmethylene)imidazolone-sulphonamide-pyrimidine hybrid 6b. (A) Pro-survival Bcl-2 protein; (B) pro-apoptotic Bax protein. Cells underwent treatment with an IC50 concentration of imidazolone hybrids 6b for 48 h and the expression of apoptosis-related proteins was examined by qRT-PCR assay.
# Bax = assay: qRT-PCR expression of pro-apoptotic Bax in MCF-7 cells; format: cell-based; details: IC50 concentration, 48 h, MCF-7, increase
# Source text: as §1, §2
# T1 sequence (P00533 25-1210): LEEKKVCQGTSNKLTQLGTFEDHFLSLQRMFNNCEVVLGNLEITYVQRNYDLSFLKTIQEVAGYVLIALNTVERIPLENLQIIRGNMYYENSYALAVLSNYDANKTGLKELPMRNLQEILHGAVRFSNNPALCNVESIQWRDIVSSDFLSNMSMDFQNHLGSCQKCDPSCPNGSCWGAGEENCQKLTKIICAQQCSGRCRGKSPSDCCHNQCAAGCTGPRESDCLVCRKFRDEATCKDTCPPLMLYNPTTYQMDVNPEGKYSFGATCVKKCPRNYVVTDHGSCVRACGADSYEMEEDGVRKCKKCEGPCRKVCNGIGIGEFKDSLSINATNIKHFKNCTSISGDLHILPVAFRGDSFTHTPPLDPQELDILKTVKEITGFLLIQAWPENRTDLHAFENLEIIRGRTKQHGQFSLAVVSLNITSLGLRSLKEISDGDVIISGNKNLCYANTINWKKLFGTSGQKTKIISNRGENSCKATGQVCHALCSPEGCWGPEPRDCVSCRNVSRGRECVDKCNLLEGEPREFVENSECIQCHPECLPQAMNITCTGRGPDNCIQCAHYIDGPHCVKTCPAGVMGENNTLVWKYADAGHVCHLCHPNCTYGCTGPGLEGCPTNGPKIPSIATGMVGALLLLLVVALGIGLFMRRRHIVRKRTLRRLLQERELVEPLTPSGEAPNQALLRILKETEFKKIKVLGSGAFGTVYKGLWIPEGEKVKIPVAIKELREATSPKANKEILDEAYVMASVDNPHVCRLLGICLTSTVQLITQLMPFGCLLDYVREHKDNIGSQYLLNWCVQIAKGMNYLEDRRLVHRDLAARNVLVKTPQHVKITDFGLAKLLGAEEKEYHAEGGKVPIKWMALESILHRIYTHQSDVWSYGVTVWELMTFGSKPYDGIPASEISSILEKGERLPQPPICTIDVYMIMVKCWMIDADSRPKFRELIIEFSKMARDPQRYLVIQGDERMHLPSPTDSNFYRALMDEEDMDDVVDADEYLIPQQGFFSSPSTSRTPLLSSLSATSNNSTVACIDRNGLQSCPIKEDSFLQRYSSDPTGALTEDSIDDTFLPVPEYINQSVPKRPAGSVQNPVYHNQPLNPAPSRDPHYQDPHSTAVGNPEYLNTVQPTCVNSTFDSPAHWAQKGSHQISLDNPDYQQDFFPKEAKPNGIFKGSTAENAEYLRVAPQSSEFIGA
SMILES,melting point,IC50 [1],also measured
"O=C1/C(=C/c2ccc(Br)cc2)N=C(c2ccccc2)N1c1ccc(S(=O)(=O)Nc2ncccn2)cc1 [5a, (Z)-4-(4-(4-bromobenzylidene)-5-oxo-2-phenyl-4,5-dihydro-1H-imidazole-1-yl)-N-(pyrimidin-2-yl)benzenesulfonamide]",290 to 292 °C,14.1 ± 0.68 µM,–
"COc1ccc(C2=N/C(=C\c3ccc(Cl)cc3)C(=O)N2c2ccc(S(=O)(=O)Nc3ncccn3)cc2)cc1 [5h, (Z)-4-(4-(4-chlorobenzylidene)-2-(4-methoxyphenyl)-5-oxo-4,5-dihydro-1H-imidazole-1-yl)-N-(pyrimidin-2-yl)benzenesulfonamide]",262 to 264 °C,3.71 ± 0.2 µM,IC50 (EGFR-TK): 0.16 µM
"CC(=O)Oc1c(Br)cc(/C=C2\N=C(c3ccccc3)N(c3ccc(S(=O)(=O)Nc4ncccn4)cc3)C2=O)cc1Br [5d, (Z)-2,6-dibromo-4-((5-oxo-2-phenyl-1-(4-(N-pyrimidin-2-ylsulfamoyl)phenyl)-1H-imidazole-4(5H)-ylidene)methyl)phenyl acetate]",243 to 245 °C,29.4 ± 1.64 µM,–
"O=C1/C(=C/c2ccccc2O)N=C(c2ccccc2)N1c1ccc(S(=O)(=O)Nc2ncccn2)cc1 [5b, (Z)-4-(4-(2-hydroxybenzylidene)-5-oxo-2-phenyl-4,5-dihydro-1H-imidazole-1-yl)-N-(pyrimidin-2-yl)benzenesulfonamide]",188 to 190 °C,31.4 ± 1.64 µM,–
"COc1ccc(C2=N/C(=C\c3cc(OC)c(OC)c(OC)c3)C(=O)N2c2ccc(S(=O)(=O)Nc3ncccn3)cc2)cc1 [5l, (Z)-4-(2-(4-methoxyphenyl)-5-oxo-4-(3,4,5-trimethoxybenzylidene)-4,5-dihydro-1H-imidazole-1-yl)-N-(pyrimidin-2-yl)benzenesulfonamide]",247 to 249 °C,25.8 ± 1.24 µM,–
"COc1ccc(C2=N/C(=C\c3ccco3)C(=O)N2c2ccc(S(=O)(=O)Nc3ncccn3)cc2)cc1 [6b, (Z)-4-(4-(furan-2-ylmethylene)-2-(4-methoxyphenyl)-5-oxo-4,5-dihydro-1H-imidazole-1-yl)-N-(pyrimidin-2-yl)benzenesulfonamide]",–,1.05 ± 0.04 µM,IC50 (EGFR-TK): 0.09 µM; MCF-7 cells in G2/M phase (MCF-7 cells [2]; control 13.7%): 10.8%; MCF-7 cells in S phase (MCF-7 cells [2]; control 35.1%): 24.3%; MCF-7 cells in G1 phase (MCF-7 cells [2]; control 51.2%): 64.9%; apoptosis induced in MCF-7 cells (total) (MCF-7 cells [3]): 46.1%; apoptotic cells in the late stage (upper right quadrant) (MCF-7 cells [3]; control 0.2%): 23.4%; apoptotic cells in the early stage (lower right quadrant) (MCF-7 cells [3]; control 0.6%): 22.7%; Bcl-2 expression level relative to untreated control (Bcl-2): 0.28 fold; Bax expression level relative to untreated control (Bax): 4.54 fold
"COc1ccc(C2=N/C(=C\c3ccc([N+](=O)[O-])cc3)C(=O)N2c2ccc(S(=O)(=O)Nc3ncccn3)cc2)cc1 [5j, (Z)-4-(2-(4-methoxyphenyl)-4-(4-nitrobenzylidene)-5-oxo-4,5-dihydro-1H-imidazole-1-yl)-N-(pyrimidin-2-yl)benzenesulfonamide]",> 300 °C,3.14 ± 0.16 µM,IC50 (EGFR-TK): 0.21 µM
"COc1ccc(C2=N/C(=C\c3cc(Br)c(OC(C)=O)c(Br)c3)C(=O)N2c2ccc(S(=O)(=O)Nc3ncccn3)cc2)cc1 [5k, (Z)-2,6-dibromo-4-((2-(4-methoxyphenyl)-5-oxo-1-(4-(N-pyrimidin-2-ylsulfamoyl)phenyl)-1H-imidazole-4(5H)-ylidene)methyl)phenyl acetate]",239 to 241 °C,14.5 ± 0.65 µM,–
"COc1ccc(C2=N/C(=C\c3ccc(F)cc3)C(=O)N2c2ccc(S(=O)(=O)Nc3ncccn3)cc2)cc1 [5g, (Z)-4-(4-(4-fluorobenzylidene)-2-(4-methoxyphenyl)-5-oxo-4,5-dihydro-1H-imidazole-1-yl)-N-(pyrimidin-2-yl)benzenesulfonamide]",257 to 259 °C,4.57 ± 0.09 µM,–
"O=C1/C(=C/c2ccco2)N=C(c2ccccc2)N1c1ccc(S(=O)(=O)Nc2ncccn2)cc1 [6a, (Z)-4-(4-(furan-2-ylmethylene)-5-oxo-2-phenyl-4,5-dihydro-1H-imidazole-1-yl)-N-(pyrimidin-2-yl)benzenesulfonamide]",291 to 293 °C,5.09 ± 0.31 µM,–
"COc1ccc(/C=C2\N=C(c3ccccc3)N(c3ccc(S(=O)(=O)Nc4ncccn4)cc3)C2=O)c(OC)c1OC [5e, (Z)-4-(5-oxo-2-phenyl-4-(2,3,4-trimethoxybenzylidene)-4,5-dihydro-1H-imidazole-1-yl)-N-(pyrimidin-2-yl)benzenesulfonamide]",210 to 212 °C,37.2 ± 1.98 µM,–
"Cc1ccc(/C=C2\N=C(c3ccccc3)N(c3ccc(S(=O)(=O)Nc4ncccn4)cc3)C2=O)cc1 [5c, (Z)-4-(4-(4-methylbenzylidene)-5-oxo-2-phenyl-4,5-dihydro-1H-imidazole-1-yl)-N-(pyrimidin-2-yl)benzenesulfonamide]",277 to 279 °C,43.9 ± 2.24 µM,–
"COc1cccc2c1C(=O)c1c(O)c3c(c(O)c1C2=O)C[C@@](O)(C(=O)CO)C[C@@H]3O[C@H]1C[C@H](N)[C@H](O)[C@H](C)O1 [Dox, doxorubicin, reference compound]",–,1.91 ± 0.07 µM,–
"COc1ccc(C2=N/C(=C\c3ccc(Br)cc3)C(=O)N2c2ccc(S(=O)(=O)Nc3ncccn3)cc2)cc1 [5i, (Z)-4-(4-(4-bromobenzylidene)-2-(4-methoxyphenyl)-5-oxo-4,5-dihydro-1H-imidazole-1-yl)-N-(pyrimidin-2-yl)benzenesulfonamide]",284 to 286 °C,9.98 ± 0.61 µM,–
"COc1ccc(C2=N/C(=C\c3ccccc3)C(=O)N2c2ccc(S(=O)(=O)Nc3ncccn3)cc2)cc1 [5f, (Z)-4-(4-benzylidene-2-(4-methoxyphenyl)-5-oxo-4,5-dihydro-1H-imidazole-1-yl)-N-(pyrimidin-2-yl)benzenesulfonamide]",258 to 260 °C,85.2 ± 4.72 µM,–
